{
  "source": "patent US9113629B2",
  "about": "“4-amino-6-(4-substituted-phenyl)-picolinates and 6-amino-2-(4-substituted-phenyl)-pyrimidine-4-carboxylates and their use as herbicides” (DOW AGROSCIENCES LLC, priority 2013, dated 2015)",
  "key": {"[1]": {"test_system": "Key Grass and Sedge Weeds as well as Grass Crops", "assay": "Post-emergent Test II herbicidal activity (Table 6)", "type": "in vivo", "settings": "post-emergence, 336 h; for pest or weed control at 70 g/ha: 70 g ai/ha; for pest or weed control at 140 g/ha: 140 g ai/ha", "method_in_brief": "(§1)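 Scoring: visual, 0–100% injury at 14 d versus untreated. Treatment: overhead track spray, 187 L/ha, onto plants at the first–second true leaf stage. Growth: greenhouse, ~15 h light, 23–29 °C day, 22–28 °C night.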"}, "[2]": {"test_system": "Key Broadleaf Weed and Crop Species", "assay": "Post-emergent Test II herbicidal activity (Table 5)", "type": "in vivo", "settings": "post-emergence, 336 h, 14 days after application; for pest or weed control at 70 g/ha: application rate 70 g ai/ha; for pest or weed control at 140 g/ha: application rate 140 g ai/ha", "method_in_brief": "as §1"}, "[3]": {"settings": "CYPES: yellow nutsedge (Cyperus esculentus), read-out: Visual Growth Reduction (%) 14 Days After Application, CYPES"}, "[4]": {"settings": "DIGSA: crabgrass (Digitaria sanguinalis), read-out: Visual Growth Reduction (%) 14 Days After Application, DIGSA"}, "[5]": {"settings": "ECHCG: barnyardgrass (Echinochloa crus-galli), read-out: Visual Growth Reduction (%) 14 Days After Application, ECHCG"}, "[6]": {"settings": "ORYSA: rice (Oryza sativa), crop, read-out: Visual Growth Reduction (%) 14 Days After Application, ORYSA"}, "[7]": {"settings": "SETFA: giant foxtail (Setaria faberi), read-out: Visual Growth Reduction (%) 14 Days After Application, SETFA"}, "[8]": {"settings": "SORVU: grain sorghum (Sorghum vulgare), read-out: Visual Growth Reduction (%) 14 Days After Application, SORVU"}, "[9]": {"settings": "TRZSS (wheat, Triticum aestivum), crop, read-out: Visual Growth Reduction (%) 14 Days After Application, TRZSS"}, "[10]": {"settings": "ZEAMX: maize, corn (Zea mays), crop, read-out: Visual Growth Reduction (%) 14 Days After Application, ZEAMX"}, "[11]": {"settings": "ABUTH: velvetleaf (Abutilon theophrasti), read-out: Visual Growth Reduction (%) 14 Days After Application, ABUTH"}, "[12]": {"settings": "AMARE: redroot pigweed (Amaranthus retroflexus), read-out: Visual Growth Reduction (%) 14 Days After Application, AMARE"}, "[13]": {"settings": "BRSNN: oilseed-rape, canola (Brassica napus), read-out: Visual Growth Reduction (%) 14 Days After Application, BRSNN"}, "[14]": {"settings": "CHEAL: lambsquarters (Chenopodium album), read-out: Visual Growth Reduction (%) 14 Days After Application, CHEAL"}, "[15]": {"settings": "EPHHL: wild poinsettia (Euphorbia heterophylla), read-out: Visual Growth Reduction (%) 14 Days After Application, EPHHL"}, "[16]": {"settings": "HELAN: sunflower (Helianthus annuus), read-out: Visual Growth Reduction (%) 14 Days After Application, HELAN"}, "[17]": {"settings": "VIOTR: wild pansy (Viola tricolor), read-out: Visual Growth Reduction (%) 14 Days After Application, VIOTR"}},
  "note": "Like-named read-outs stand apart in the source and are kept apart here.",
  "data": [
    {"smiles": "Nc1c(F)c(-c2ccc(Br)cc2)nc(C(=O)O)c1Cl", "note": "[Compound 20]", "values": [
      {"measurement": "pest or weed control at 70 g/ha", "setting": "[1]; [3]", "value": "95 to 100", "unit": "%"},
      {"measurement": "pest or weed control at 140 g/ha", "setting": "[1]; [3]", "value": "95 to 100", "unit": "%"},
      {"measurement": "pest or weed control at 70 g/ha", "setting": "[1]; [4]", "value": "95 to 100", "unit": "%"},
      {"measurement": "pest or weed control at 140 g/ha", "setting": "[1]; [4]", "value": "95 to 100", "unit": "%"},
      {"measurement": "pest or weed control at 70 g/ha", "setting": "[1]; [5]", "value": "95 to 100", "unit": "%"},
      {"measurement": "pest or weed control at 140 g/ha", "setting": "[1]; [5]", "value": "95 to 100", "unit": "%"},
      {"measurement": "pest or weed control at 70 g/ha", "setting": "[1]; [6]", "value": "60 to 74", "unit": "%"},
      {"measurement": "pest or weed control at 140 g/ha", "setting": "[1]; [6]", "value": "60 to 74", "unit": "%"},
      {"measurement": "pest or weed control at 70 g/ha", "setting": "[1]; [7]", "value": "95 to 100", "unit": "%"},
      {"measurement": "pest or weed control at 140 g/ha", "setting": "[1]; [7]", "value": "95 to 100", "unit": "%"},
      {"measurement": "pest or weed control at 70 g/ha", "setting": "[1]; [8]", "value": "95 to 100", "unit": "%"},
      {"measurement": "pest or weed control at 140 g/ha", "setting": "[1]; [8]", "value": "95 to 100", "unit": "%"},
      {"measurement": "pest or weed control at 70 g/ha", "setting": "[1]; [9]", "value": "75 to 84", "unit": "%"},
      {"measurement": "pest or weed control at 140 g/ha", "setting": "[1]; [9]", "value": "75 to 84", "unit": "%"},
      {"measurement": "pest or weed control at 70 g/ha", "setting": "[1]; [10]", "value": "95 to 100", "unit": "%"},
      {"measurement": "pest or weed control at 140 g/ha", "setting": "[1]; [10]", "value": "95 to 100", "unit": "%"},
      {"measurement": "pest or weed control at 70 g/ha", "setting": "[2]; [11]", "value": "95 to 100", "unit": "%"},
      {"measurement": "pest or weed control at 140 g/ha", "setting": "[2]; [11]", "value": "95 to 100", "unit": "%"},
      {"measurement": "pest or weed control at 70 g/ha", "setting": "[2]; [12]", "value": "95 to 100", "unit": "%"},
      {"measurement": "pest or weed control at 140 g/ha", "setting": "[2]; [12]", "value": "95 to 100", "unit": "%"},
      {"measurement": "pest or weed control at 70 g/ha", "setting": "[2]; [13]", "value": "95 to 100", "unit": "%"},
      {"measurement": "pest or weed control at 140 g/ha", "setting": "[2]; [13]", "value": "95 to 100", "unit": "%"},
      {"measurement": "pest or weed control at 70 g/ha", "setting": "[2]; [14]", "value": "95 to 100", "unit": "%"},
      {"measurement": "pest or weed control at 140 g/ha", "setting": "[2]; [14]", "value": "95 to 100", "unit": "%"},
      {"measurement": "pest or weed control at 70 g/ha", "setting": "[2]; [15]", "value": "95 to 100", "unit": "%"},
      {"measurement": "pest or weed control at 140 g/ha", "setting": "[2]; [15]", "value": "95 to 100", "unit": "%"},
      {"measurement": "pest or weed control at 70 g/ha", "setting": "[2]; [16]", "value": "95 to 100", "unit": "%"},
      {"measurement": "pest or weed control at 140 g/ha", "setting": "[2]; [16]", "value": "95 to 100", "unit": "%"},
      {"measurement": "pest or weed control at 70 g/ha", "setting": "[2]; [17]", "value": "95 to 100", "unit": "%"},
      {"measurement": "pest or weed control at 140 g/ha", "setting": "[2]; [17]", "value": "95 to 100", "unit": "%"}
    ]}
  ]
}
